Inconclusive results and toxic doses are left out.
System: P388 leukemia ip, CD2F1 mice, survival T/C
Assay: NCI In Vivo Anticancer Drug Screen. Data for tumor model P388 Leukemia (intraperitoneal) in CD2F1 (CDF1) mice
Settings: endpoint: median survival time, higher = longer survival
How it was run: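 Mice carrying the transplanted tumor received test compound or vehicle. Survival was recorded in each group, and the value is the treated-group measurement divided by that of the vehicle-treated control group.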

[1] = dose: 50.0 mg/kg/injection, schedule: Q01DX005 (ip), vehicle: saline with Tween-80
[2] = dose: 100.0 mg/kg/injection, schedule: Q01DX005 (ip), vehicle: saline with Tween-80
[3] = dose: 200.0 mg/kg/injection, schedule: Q01DX005 (ip), vehicle: saline with Tween-80
[4] = dose: 50.0 mg/kg/injection, schedule: Q01DX005 (ip), vehicle: Klucel (hydroxypropylcellulose) (HPC)
[5] = dose: 100.0 mg/kg/injection, schedule: Q01DX005 (ip), vehicle: Klucel (hydroxypropylcellulose) (HPC)
[6] = dose: 200.0 mg/kg/injection, schedule: Q01DX005 (ip), vehicle: Klucel (hydroxypropylcellulose) (HPC)
[7] = dose: 100.0 mg/kg/injection, schedule: Q01DX001 (ip), vehicle: saline
[8] = dose: 200.0 mg/kg/injection, schedule: Q01DX001 (ip), vehicle: saline
[9] = dose: 400.0 mg/kg/injection, schedule: Q01DX001 (ip), vehicle: saline

For `c1cc[c]([Sn][c]2ccccc2)cc1`, the T/C (dose: 2.5 mg/kg/injection, schedule: Q01DX009 (ip), vehicle: saline) was 151 % of control.

In the case of `CC1(CCl)CC1(Cl)Cl` (stereo not given), the T/C (dose: 50.0 mg/kg/injection, schedule: Q01DX005 (ip), vehicle: saline) is reported as 103 % of control, the T/C (dose: 100.0 mg/kg/injection, schedule: Q01DX005 (ip), vehicle: saline) is reported as 103 % of control and the T/C (dose: 200.0 mg/kg/injection, schedule: Q01DX005 (ip), vehicle: saline) is reported as 104 % of control.

With `C(=C1\Oc2ccccc2N=C1OCCN1CCOCC1)/c1ccccc1` the T/C (dose: 100.0 mg/kg/injection, schedule: Q04DX003 (ip), vehicle: Klucel (hydroxypropylcellulose) (HPC)) was 97 % of control, the T/C (dose: 200.0 mg/kg/injection, schedule: Q04DX003 (ip), vehicle: Klucel (hydroxypropylcellulose) (HPC)) was 99 % of control and the T/C (dose: 400.0 mg/kg/injection, schedule: Q04DX003 (ip), vehicle: Klucel (hydroxypropylcellulose) (HPC)) was 98 % of control.

`O=C1CCCSc2ccccc21` was tested, and the T/C (dose: 25.0 mg/kg/injection, schedule: Q01DX009 (ip), vehicle: saline with Tween-80) was 100 % of control, the T/C (dose: 50.0 mg/kg/injection, schedule: Q01DX009 (ip), vehicle: saline with Tween-80) was 94 % of control and the T/C (dose: 100.0 mg/kg/injection, schedule: Q01DX009 (ip), vehicle: saline with Tween-80) was 102 % of control. The T/C (dose: 200.0 mg/kg/injection, schedule: Q01DX009 (ip), vehicle: saline with Tween-80) was 106 % of control.

`O=S(=O)(O)c1ccc2cccc(N=Nc3c(O)ccc4ccccc34)c2c1` was tested, and the T/C (dose: 12.5 mg/kg/injection, schedule: Q01DX009 (ip), vehicle: saline) was 104 % of control, the T/C (dose: 25.0 mg/kg/injection, schedule: Q01DX009 (ip), vehicle: saline) was 101 % of control and the T/C (dose: 50.0 mg/kg/injection, schedule: Q01DX009 (ip), vehicle: saline) was 93 % of control.

In the case of `O=C1C=C(Nc2ccccn2)C(=O)C=C1Nc1ccccn1`, the T/C [1] is reported as 107 % of control, the T/C [2] is reported as 107 % of control and the T/C [3] is reported as 105 % of control.

For `Cc1cc2nc3c(C(O)C(O)C(O)CO)nn(-c4ccc(F)cc4)c3nc2cc1C` (stereo not given), the T/C [4] was 88 % of control, the T/C [5] was 86 % of control and the T/C [6] was 93 % of control.

In the case of `Cc1ccc(N2C(=O)C(C)SC23C(=O)Nc2ccc(Cl)cc23)cc1` (stereo not given), the T/C (dose: 60.0 mg/kg/injection, schedule: Q01DX005 (ip), vehicle: saline with Tween-80) is reported as 91 % of control, the T/C (dose: 120.0 mg/kg/injection, schedule: Q01DX005 (ip), vehicle: saline with Tween-80) is reported as 96 % of control and the T/C (dose: 240.0 mg/kg/injection, schedule: Q01DX005 (ip), vehicle: saline with Tween-80) is reported as 100 % of control.

`O=[N+]([O-])c1ccc2c(c1)Cc1cc(N(CCCl)CCCl)ccc1-2` was tested, and the T/C (dose: 50.0 mg/kg/injection, schedule: Q01DX009 (ip), vehicle: Klucel (hydroxypropylcellulose) (HPC)) was 94 % of control, the T/C (dose: 100.0 mg/kg/injection, schedule: Q01DX009 (ip), vehicle: Klucel (hydroxypropylcellulose) (HPC)) was 92 % of control and the T/C (dose: 200.0 mg/kg/injection, schedule: Q01DX009 (ip), vehicle: Klucel (hydroxypropylcellulose) (HPC)) was 94 % of control.

`O=C1c2ccccc2C(=O)c2c(O)c(NCCCN(CCO)CCO)cc(O)c21` was tested, and the T/C [1] was 101 % of control, the T/C [2] was 109 % of control and the T/C [3] was 113 % of control.

With `Cc1cc(=O)oc2c1c(=O)[nH]n2-c1ccccc1` the T/C [4] was 95 % of control, the T/C [5] was 87 % of control and the T/C [6] was 86 % of control.

For `CCCCCOC(=O)CN(CC(=O)OCCCCC)c1ccc(C=O)cc1`, the T/C (dose: 25.0 mg/kg/injection, schedule: Q04DX003 (ip), vehicle: other) was 95 % of control, the T/C (dose: 50.0 mg/kg/injection, schedule: Q04DX003 (ip), vehicle: other) was 100 % of control and the T/C (dose: 100.0 mg/kg/injection, schedule: Q04DX003 (ip), vehicle: other) was 100 % of control.

For `C=C1CC2(CC(C)CCC2=C(C)C)OC1=O` (stereo not given), the T/C [7] was 101 % of control, the T/C [8] was 100 % of control and the T/C [9] was 101 % of control.

For `C[n+]1ccc2ccccc2c1SC1CCC2CC3CC2C1C3` (stereo not given), the T/C (dose: 7.5 mg/kg/injection, schedule: Q01DX005 (ip), vehicle: saline with Tween-80) was 106 % of control and the T/C (dose: 15.0 mg/kg/injection, schedule: Q01DX005 (ip), vehicle: saline with Tween-80) was 110 % of control.

`Nc1nc(N)c2nn(C3OC(CO)C(O)C3O)nc2n1` (stereo not given) was tested, and the T/C (dose: 25.0 mg/kg/injection, schedule: Q01DX001 (ip), vehicle: saline) was 103 % of control, the T/C (dose: 50.0 mg/kg/injection, schedule: Q01DX001 (ip), vehicle: saline) was 94 % of control and the T/C [7] was 105 % of control. For the same compound, the T/C [8] was 100 % of control and the T/C [9] was 100 % of control.
